Test results as given in patent US20150209343A1, “TOPICAL DERMAL COMPOSITIONS” (Allergan, Inc., priority 2014, published 2015).
Converted amounts (≈) assume the structure as drawn. Read-outs that look alike come from different tables or passages of the source.

How the values were obtained:
[1] = test system: retinoic acid receptor (RAR) family: RARα, RARβ, and RARγ; conditions: cited from earlier work
[2] = Physicochemical properties of tazarotene
[3] = cited from earlier work

Compound | binding to RARα, RARβ and RARγ [1] | selectivity among RARs [1] | crystalline drug by DSC or PXRD analysis ([2]; at 1% or at 4% in Compritol) | solubility ([2]; isopropyl myristate, oil or lipid, read-out: Solubility in isopropyl myristate) | solubility ([2]; water, read-out: Solubility in water) | pKa [3]
CC1(C)CCSc2ccc(C#Cc3ccc(C(=O)O)cn3)cc21 [Tazarotenic acid] | binds to all three members | relative selectivity for RARβ, and RARγ | – | – | – | –
CCOC(=O)c1ccc(C#Cc2ccc3c(c2)C(C)(C)CCS3)nc1 [Tazarotene, Ethyl 6-[(4,4-dimethylthiochroman-6-yl)ethynyl]nicotinate] | – | – | no crystalline drug was detected | 7400 µg/mL (≈ 21.1 mM) | < 1 µg/mL | 1.5^(1)
